US5770613A, “Telomerase inhibitors” (Geron Corporation, priority 1995, dated 1998)
Entries after “also recorded” stand apart in the source; their conditions may differ.

Legend:
telomerase [1] = target: T1, telomerase (Homo sapiens, UniProt O14746); assay: Inhibition of telomerase activity (IC50); format: biochemical; conditions: approximate values (Table 2)
T1 construct: preferably a cellular extract or other preparation containing telomerase; endogenous in cells

telomerase [2] = target: T1, telomerase; assay: specificity in IMR-90, OVCAR-5 and SK-OV-3 cell samples (Topoisomerase II, Single-Strand Binding Protein, Terminal Transferase); format: cell-based; conditions: cell samples dosed at one quarter of the IC50 for telomerase, versus Topoisomerase II
Method: In on experiment, Compound V was administered to IMR-90, OVCAR-5, and SK-OV-3 cell samples at a concentration one quarter that of its IC50 for telomerase. The effects of Compound V on the activity of Topoisomerase II, Single-Strand Binding Protein, and Terminal Transferase were then determined using standard methodologies.

Topoisomerase II [3] = assay: Enzyme-mediated DNA cleavage assay (Topoisomerase II targeting / cleavable complex formation); format: biochemical
Method: Compound V was tested for its ability to target Topoisomerase II in a standard enzyme-mediated DNA cleavage assay. The well known anti-tumor agent VP-16 was used as a positive control. […] The amount of linear DNA was proportional to the concentration of Compound V used in the experiment.

IMR-90 cells = assay: Long-term exposure of cell colonies, induction of senescence; format: cell-based; conditions: 5 μM, added every second day; versus DMSO control
Method: (§1) Colonies of the ovarian tumor cell lines OVCAR-5, SK-OV-3 and IMR-90 cells were prepared using standard methods and materials. In one test, the colonies were prepared by seeding 15-centimeter dishes with about 10^6 cells in each dish. The dishes were incubated to allow the cell colonies to grow to about 80% confluence, at which time each of the colonies was divided into two groups. One group was exposed to a subacute dose of Compound V (5 μM) 4-8 hours after plating following the split; the other group was exposed to a DMSO control.
(§2) Each group was then allowed to continue to divide, and the groups were split evenly again (near confluence). The same number of cells were seeded for continued growth. The compound or control was added every second day to the samples at the same concentration delivered initially (5 μM). […] No effect was seen on SK-OV-3 cells.

Terminal Transferase = assay: Specificity screen versus telomerase; format: biochemical; conditions: from IC50 screening
Excerpt: (§3) Compound V was screened for activity (IC50) against telomerase and several enzymes having nucleic acid binding or modifying activities related to telomerase using standard techniques. The enzymes screened included Telomerase, Topoisomerase II, Terminal Transferase and Single-Stranded DNA Binding Protein (SSB).

Topoisomerase II [4] = assay: Specificity screen versus telomerase; format: biochemical; conditions: from IC50 screening
Excerpt: as §3

[5] = test system: Single-Stranded DNA Binding Protein (SSB); assay: Specificity screen versus telomerase; format: biochemical; conditions: from IC50 screening
Excerpt: as §3

OVCAR-5 cells = assay: Long-term exposure of cell colonies, effect on growth; format: cell-based; conditions: 5 μM, added every second day; versus DMSO control
Method: as §1, §2

SK-OV-3 cells = assay: as above; format: cell-based; conditions: 5 μM, added every second day; versus DMSO control
Method: as §1, §2

IMR-90 = assay: XTT assay for cytotoxicity; format: cell-based; conditions: Homo sapiens, 72 hours, 3 μM to 1,000 μM, read-out: LD50 (the source's name)
Method: (§4) The XTT assay for cytotoxicity was performed using the ovarian tumor cells lines IMR-90, OVCAR-5 and SK-OV-3. Cells from the normal human cell line BJ were used as a control. The cell lines used in the assay were exposed to Compound V of the invention for 72 hours at concentrations ranging from 3 μM to 1,000 μM. During this period, the optical density (OD) of the samples was determined for light at 540 nanometers (nm).

SK-OV-3 = assay: XTT assay for cytotoxicity; format: cell-based; conditions: Homo sapiens, 72 hours, 3 μM to 1,000 μM, read-out: LD50 (the source's name)
Method: as §4

OVCAR-5 = assay: XTT assay for cytotoxicity; format: cell-based; conditions: Homo sapiens, 72 hours, 3 μM to 1,000 μM, read-out: LD50 (the source's name)
Method: as §4

OVCAR-5 tumor cells = assay: Human tumor xenograft model in nude mice, tumor mass; format: in vivo
Method: In vivo testing was also performed using a mouse xenograft model in which OVCAR-5 tumor cells were grafted onto nude mice. […] In contrast, mice treated with a control (DMSO) are expected to have tumor masses that continue to increase.
A human tumor xenograft model in which OVCAR-5 tumor cells were grafted into nude mice was constructed using standard techniques and materials. The mice were divided into two groups. One group was treated intraperitoneally with Compound V. The other group was treated with a control comprising DMSO and phosphate buffer solution (PBS). The average tumor mass for mice in each group was determined periodically following the xenograft using standard methods and materials.

T1 sequence (O14746 whole entry): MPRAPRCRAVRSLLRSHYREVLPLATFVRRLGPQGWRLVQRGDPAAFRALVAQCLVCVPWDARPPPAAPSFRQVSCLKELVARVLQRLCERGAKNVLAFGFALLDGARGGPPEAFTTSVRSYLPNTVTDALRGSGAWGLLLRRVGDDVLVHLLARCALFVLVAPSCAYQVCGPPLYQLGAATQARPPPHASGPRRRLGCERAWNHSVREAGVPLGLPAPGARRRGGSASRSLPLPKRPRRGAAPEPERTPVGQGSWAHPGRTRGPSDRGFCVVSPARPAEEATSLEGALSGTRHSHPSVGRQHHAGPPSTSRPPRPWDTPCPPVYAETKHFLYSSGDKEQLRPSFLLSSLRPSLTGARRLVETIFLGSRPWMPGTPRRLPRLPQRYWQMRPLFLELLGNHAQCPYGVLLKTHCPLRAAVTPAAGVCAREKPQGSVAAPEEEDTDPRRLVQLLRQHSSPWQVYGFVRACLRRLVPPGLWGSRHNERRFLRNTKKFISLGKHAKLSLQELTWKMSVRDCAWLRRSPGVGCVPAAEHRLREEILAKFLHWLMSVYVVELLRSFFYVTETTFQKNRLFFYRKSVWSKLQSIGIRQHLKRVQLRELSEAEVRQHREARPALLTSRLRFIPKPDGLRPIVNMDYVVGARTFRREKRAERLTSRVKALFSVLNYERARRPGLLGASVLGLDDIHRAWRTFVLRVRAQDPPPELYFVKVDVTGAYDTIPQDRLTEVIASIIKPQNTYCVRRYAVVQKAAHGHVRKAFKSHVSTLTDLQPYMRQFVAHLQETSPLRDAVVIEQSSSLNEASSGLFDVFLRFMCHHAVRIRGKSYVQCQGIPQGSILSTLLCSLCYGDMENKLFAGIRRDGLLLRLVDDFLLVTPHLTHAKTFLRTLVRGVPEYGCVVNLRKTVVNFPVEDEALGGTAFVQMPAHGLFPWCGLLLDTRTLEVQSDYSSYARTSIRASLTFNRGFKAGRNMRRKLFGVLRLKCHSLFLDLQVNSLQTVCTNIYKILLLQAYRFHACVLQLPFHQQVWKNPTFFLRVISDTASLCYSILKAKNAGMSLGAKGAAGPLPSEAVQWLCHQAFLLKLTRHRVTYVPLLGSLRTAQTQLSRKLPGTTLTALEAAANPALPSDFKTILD

Structure (SMILES) | IC50 (telomerase [1]) [µM] | further results
CC1(C)CCC(C)(C)c2cc(CSc3nc(C=O)ccc3C#N)ccc21 [VII] | 8 | –
N#Cc1ccc(C=O)nc1SCC(=O)c1ccc(Cl)cc1 [Compound XII] | 15.1 | –
N#Cc1ccc(C=O)nc1SCc1c(Cl)c(Cl)c(CSc2nc(C=O)ccc2C#N)c(Cl)c1Cl [Compound XXVIII] | < 3.2 | –
N#Cc1ccc(C=O)nc1SCC=CCSc1nc(C=O)ccc1C#N [Compound XXXV] | 10 | –
N#Cc1ccc(C=O)nc1SCc1ccc(C(F)(F)F)cc1 [IV] | 18 | –
N#Cc1ccc(C=O)nc1SCc1ccc(CSc2nc(C=O)ccc2C#N)c(CSc2nc(C=O)ccc2C#N)c1CSc1nc(C=O)ccc1C#N [XXXII] | < 3.2 | –
Cc1c(C)c(C)c(CSc2nc(C=O)ccc2C#N)c(C)c1C [III] | 9 | –
N#Cc1ccc(C=O)nc1SCC(=O)c1ccc(Cl)c(Cl)c1 [Compound X] | 10.9 | –
Cc1c(C)c(C)c(CSc2nc(C=O)ccc2C#N)c(CSc2nc(C=O)ccc2C#N)c1C [Compound XX] | < 3.2 | –
N#Cc1ccc(C=O)nc1SCc1cccc(CSc2nc(C=O)ccc2C#N)c1 [Compound XVII] | < 3.2 | –
Cc1c(C)c(CSc2nc(C=O)ccc2C#N)c(C)c(CSc2nc(C=O)ccc2C#N)c1C [Compound XXII] | 4 | –
CCc1c(CSc2nc(C=O)ccc2C#N)ccc2c1C(C)(C)CCC2(C)C [VIII] | 21 | –
N#Cc1ccc(C=O)nc1SCc1cc(Cl)c(CSc2nc(C=O)ccc2C#N)cc1Cl [Compound XXI] | < 3.2 | –
N#Cc1ccc(C=O)nc1SCc1ccc(CSc2nc(C=O)ccc2C#N)cc1 [Compound XIX] | 5 | –
N#Cc1ccc(C=O)nc1SCCCCSc1nc(C=O)ccc1C#N [Compound XXXIV] | 7 | –
Cc1c(CSc2nc(C=O)ccc2C#N)c(C)c(CSc2nc(C=O)ccc2C#N)c(C)c1CSc1nc(C=O)ccc1C#N [Compound XXXI] | < 3.2 | –
N#Cc1ccc(C=O)nc1SCc1ccc2ccccc2c1CSc1nc(C=O)ccc1C#N [Compound XXX] | 7 | –

Structure (SMILES) | IC50 (telomerase [1]) [µM] | further results
N#Cc1ccc(C=O)nc1SCC#CCSc1nc(C=O)ccc1C#N [Compound XXXVI] | 5 | –
N#Cc1ccc(C=O)nc1SCc1cccc2cccc(CSc3nc(C=O)ccc3C#N)c12 [Compound XXVII] | < 3.2 | –
N#Cc1ccc(C=O)nc1SCc1c(Cl)cccc1Cl [VI] | 7 | –
N#Cc1ccc(C=O)nc1SCc1cc2ccccc2cc1CSc1nc(C=O)ccc1C#N [Compound XXVI] | 6 | –
N#Cc1ccc(C=O)nc1SCc1ccc(Cl)s1 [Compound IX] | 5 | –
Cc1cc(CSc2nc(C=O)ccc2C#N)c(C)cc1CSc1nc(C=O)ccc1C#N [Compound XXIII] | 7 | –
N#Cc1ccc(C=O)nc1SCc1cc(Br)ccc1-c1ccc(Br)cc1CSc1nc(C=O)ccc1C#N [Compound XXV] | < 3.2 | –
Cc1cc(C)c(CSc2nc(C=O)ccc2C#N)cc1CSc1nc(C=O)ccc1C#N [Compound XV] | < 3.2 | –
N#Cc1ccc(C=O)nc1SCc1ccccc1CSc1nc(C=O)ccc1C#N [Compound XVIII] | 6 | –
N#Cc1ccc(C=O)nc1SCc1cc(CSc2nc(C=O)ccc2C#N)c(CSc2nc(C=O)ccc2C#N)cc1CSc1nc(C=O)ccc1C#N [XXXIII] | < 3.2 | –
N#Cc1ccc(C=O)nc1SCc1c2ccccc2c(CSc2nc(C=O)ccc2C#N)c2ccccc12 [Compound XXIX] | 7 | –
Cc1cc(C)c(CSc2nc(C=O)ccc2C#N)c(C)c1CSc1nc(C=O)ccc1C#N [Compound XVI] | < 3.2 | –
N#Cc1ccc(C=O)nc1SCC(=O)c1ccc(Cl)cc1Cl [Compound XI] | 27 | –
N#Cc1ccc(C=O)nc1SCc1ccccc1-c1ccccc1CSc1nc(C=O)ccc1C#N [Compound XXIV] | < 3.2 | –
N#Cc1ccc(C=O)nc1SCc1ccc(Cl)c(Cl)c1 [Compound V] | 4.5 | specificity for telomerase (factor) (telomerase [2]): about 5; Topoisomerase II-mediated DNA cleavage (linear DNA in agarose gel) (Topoisomerase II [3]; VP-16 as positive control): targeted Topoisomerase II; cleavable complex formation in Topoisomerase II, level of activity versus adriamycin and mitoxantrone (Topoisomerase II [3]; compared with adriamycin and mitoxantrone): greater than the well-known anti-tumor agents adriamycin and mitoxantrone; also recorded: stronger Topoisomerase II-targeting antitumor agent than the known Topoisomerase II-targeting agents adriamycin and mitoxantrone; inhibitory activity with respect to Topoisomerase II (Topoisomerase II [3]; qualitative statement): display inhibitory activity with respect to Topoisomerase II; also recorded: demonstrate inhibitory activity with respect to Topoisomerase II; Topoisomerase II activity relative to VP-16 (Topoisomerase II [3]; relative to VP-16): one fifth the activity of VP-16; induction of senescence earlier than DMSO control (IMR-90 cells): approximately 5 period doublings; lower specificity for Terminal Transferase as compared to telomerase (Terminal Transferase): ≥ 5 fold; lower specificity for Topoisomerase II as compared to telomerase (Topoisomerase II [4]): ≥ 5 fold; lower specificity for Single-Stranded DNA Binding Protein (SSB) as compared to telomerase [5]: ≥ 5 fold; effect on cell growth (OVCAR-5 cells): small effect; effect on cells (SK-OV-3 cells): No effect; IC50 (IMR-90): 5 µM; IC50 (SK-OV-3): 10 µM; IC50 (OVCAR-5): 15 µM; tumor growth (OVCAR-5 tumor cells; 10 mg/(kg.day), intraperitoneal): not affected; increase in tumor weight (OVCAR-5 tumor cells; 25 mg/(kg.day), intraperitoneal): practically ceased after about 50 days; tumor mass over time (OVCAR-5 tumor cells; average, after increase for a period following initial dosing): began to level with continuing treatment; tumor growth as compared to vehicle (OVCAR-5 tumor cells; intraperitoneal, p<0.05, unpaired t-test): statistically significant slowing of tumor growth
N#Cc1ccc(C=O)nc1OCc1ccc(Cl)c(Cl)c1 [Compound XIII] | 12.8 | –
